Experimental data: PMC12336824 (The Journal of Biological Chemistry, 2025)
Converted amounts (≈) assume the structure as drawn.

System: V. cholerae Δnqr mutant
Experiment: microbe, parasite or virus in culture
Format: cell-based

## CC(C)/N=c1\cc2n(-c3ccc(Cl)cc3)c3ccccc3nc-2cc1Nc1ccc(Cl)cc1 [clofazimine]
  resistance of the growth to saturating concentrations of inhibitor: about 40%
Vibrio cholerae, 8 h
  MIC50: 23 ± 6 µM (≈ 10.9 µg/mL)
